The source of these data is publication PMC12383022, “Discovery of a Novel Antimicrobial Peptide from Paenibacillus sp. Na14 with Potent Activity Against Gram-Negative Bacteria and Genomic Insights into Its Biosynthetic Pathway” (Antibiotics, 2025).

For assay [1], the system named is K. pneumoniae TISTR 1383. Briefly: Agar well diffusion assay. The format is cell-based, Klebsiella pneumoniae. From the text:
(§1) To identify potential active bacterial isolates, the cross-streak and agar well diffusion method was employed against S. aureus TISTR 517 and E. coli TISTR 887, following the protocol described in a previous study. The production kinetics of antibacterial substances by the active bacterial isolates were investigated. Single colonies were suspended in 0.9% NaCl solution, and the turbidity was adjusted to an optical density (OD) of 0.35 at 625 nm. Two milliliters of the cell suspension were inoculated into 98 mL of LB broth and incubated at 37 °C with shaking at 150 rpm for seven days. At each time interval, bacterial growth was evaluated by measuring the OD at 625 nm using a UV-Vis spectrophotometer (JASCO Corporation, Tokyo, Japan). The cell-free supernatant (CFS) was obtained by centrifuging the culture at 10,000× g at 4 °C for 15 min. Subsequently, 100 µL of the supernatant was loaded into wells on MH agar plates precultured with tested pathogens. Colistin and vancomycin served as positive controls in agar well diffusion assay.
(Agar diffusion results depend on both activity and mobility in agar.)

For assay [2], the system named is E. coli TISTR 887. Briefly: Agar well diffusion assay. The format is cell-based, Escherichia coli.
Text: as §1

Assay [3] deals with P. aeruginosa TISTR 357. Nature of the assay: Agar well diffusion assay. The format is cell-based, Pseudomonas aeruginosa.
Text: as §1

Assay [4] deals with S. aureus TISTR 517. Nature of the assay: microbe, parasite or virus in culture. It is filed as cell-based, Staphylococcus aureus. As to conditions: Staphylococcus aureus, TISTR517, 24 h, read-out: MBC, S. aureus TISTR 517. The procedure:
(§2) A bacterial suspension was prepared by adjusting its turbidity at OD 625 nm to 0.1 and subsequently made a 20-fold dilution using Cation-Adjusted Mueller–Hinton broth (CAHMB) as a diluent. […] The diluted cell suspension (10 µL) was added to each well, and the plates were incubated at 37 °C for 24 h. The CAMHB alone was used as a negative control, while CAMHB containing colistin or vancomycin served as a positive control.

Assay [5] deals with MRSA Strain 2468. Briefly: microbe, parasite or virus in culture. It is filed as cell-based, Staphylococcus aureus. As to conditions: Staphylococcus aureus, MRSA, 24 h. The procedure:
as §2

The test system of assay [6] is S. aureus TISTR 517. Nature of the assay: Agar well diffusion assay. It is filed as cell-based, Staphylococcus aureus.
Text: as §1

Assay [7] concerns MRSA Strain 2468. Briefly: Agar well diffusion assay. It is filed as cell-based, Staphylococcus aureus.
Text: as §1

Assay [8] concerns E. coli TISTR 887. The format is cell-based, Escherichia coli. As to conditions: broth microdilution, 37 °C, 24 h, triplicate. The procedure:
as §2
For orientation: Broth dilution looks for growth in wells or tubes with falling amounts of substance.

Assay [9] concerns P. aeruginosa TISTR 357. The format is cell-based, Pseudomonas aeruginosa. As to conditions: broth microdilution, 37 °C, 24 h, triplicate. The procedure: as §2
Assay [10] relates to K. pneumoniae TISTR 1383. It is filed as cell-based, Klebsiella pneumoniae. Particulars: broth microdilution, 37 °C, 24 h, triplicate. The procedure:
as §2

Another assay relates to E. coli. More on the design: method as in PMID 36912655. As to conditions: cited from earlier work.
Setting [11] is: agar well diffusion, MH agar, CFS obtained at 24 h of cultivation, 100 µL per well, colistin 25 μg, vancomycin 30 μg, mean ± SD, n = 3.

In brackets after ≈: the same amount, converted by molar mass.

As usually defined, the zone of inhibition is the extent of the growth-free halo in a diffusion test. `CN[C@H](CC(C)C)C(=O)N[C@H]1C(=O)N[C@@H](CC(N)=O)C(=O)N[C@H]2C(=O)N[C@H]3C(=O)N[C@H](C(=O)N[C@H](C(=O)O)c4cc(O)cc(O)c4-c4cc3ccc4O)[C@H](O)c3ccc(c(Cl)c3)Oc3cc2cc(c3O[C@@H]2O[C@H](CO)[C@@H](O)[C@H](O)[C@H]2O[C@H]2C[C@](C)(N)[C@H](O)[C@H](C)O2)Oc2ccc(cc2Cl)[C@H]1O` [Vancomycin]: the zone of inhibition at 30 µg/disc in the assay on K. pneumoniae TISTR 1383 [1] (Klebsiella pneumoniae, TISTR1383, 24 h, read-out: Zone of Inhibition, K. pneumoniae TISTR 1383) is 0 mm; in the assay with E. coli TISTR 887 [2] (Escherichia coli, TISTR887, 24 h, read-out: Zone of Inhibition, E. coli TISTR 887), 0 mm; in the assay with P. aeruginosa TISTR 357 [3] (Pseudomonas aeruginosa, TISTR357, 24 h, read-out: Zone of Inhibition, P. aeruginosa TISTR 357), 0 mm; with S. aureus TISTR 517 [6] (Staphylococcus aureus, TISTR517, 24 h, read-out: Zone of Inhibition, S. aureus TISTR 517) it was 28.5 ± 0.22 mm; in the assay on MRSA Strain 2468 [7] (Staphylococcus aureus, MRSA, 24 h, read-out: Zone of Inhibition, MRSA Strain 2468) it was 29 ± 0.43 mm. Also, the MBC was found to be 2 µg/mL (≈ 1.38 µM) with S. aureus TISTR 517 [4] and 4 µg/mL (≈ 2.76 µM) in the assay with MRSA Strain 2468 [5] (read-out: MBC, MRSA strain 2468). For the same compound, the MIC in the assay on MRSA Strain 2468 [5] (read-out: MIC, MRSA strain 2468) was 4 µg/mL (≈ 2.76 µM).
On to Colistin [reference compound], for which, in the assay on K. pneumoniae TISTR 1383 [1] (setting [11]), the “Zone of Inhibition, K. pneumoniae TISTR 1383” value is given as 26.67 ± 0.22 mm. Besides, in the assay with E. coli TISTR 887 [8] (CAMHB), the “MIC, E. coli TISTR 887” value is on record as 1 µg/mL. The “MBC, E. coli TISTR 887” value against E. coli TISTR 887 [8] (then plated on MH agar) worked out at 1 µg/mL. The “Zone of Inhibition, E. coli TISTR 887” value in the assay on E. coli TISTR 887 [2] (setting [11]) was determined as 26.52 ± 0.43 mm. Moreover, the “MIC, P. aeruginosa TISTR 357” value in the assay on P. aeruginosa TISTR 357 [9] (CAMHB) amounted to 2 µg/mL. The “MBC, P. aeruginosa TISTR 357” value against P. aeruginosa TISTR 357 [9] (then plated on MH agar) turned out to be 2 µg/mL. The “MIC, K. pneumoniae TISTR 1383” value in the assay with K. pneumoniae TISTR 1383 [10] (CAMHB) was 1 µg/mL. In addition, the “MBC, K. pneumoniae TISTR 1383” value against K. pneumoniae TISTR 1383 [10] (then plated on MH agar) is given as 1 µg/mL. Moreover, the “Zone of Inhibition, P. aeruginosa TISTR 357” value in the assay on P. aeruginosa TISTR 357 [3] (setting [11]) is given as 29.41 ± 0.65 mm. Besides, in the assay on S. aureus TISTR 517 [6] (setting [11]), the “Zone of Inhibition, S. aureus TISTR 517” value is 0.00 ± 0.00 mm. In addition, the “Zone of Inhibition, MRSA Strain 2468” value in the assay with MRSA Strain 2468 [7] (setting [11]) is recorded as 0.00 ± 0.00 mm.
With brevicidine, the “viability of E. coli at lower concentrations” value in the assay with E. coli (0.5× to 2× MIC) was “remained viable”. The “time to eradication of E. coli” value in the assay with E. coli (peptide at 4× MIC) is 1 h.
